From ChEMBL document CHEMBL5543099 (Eur J Med Chem, 2024)
In brackets after ≈: the same amount, converted by molar mass. Activity calls are given as the source filed them. The rule behind the calls is not given here.

Tests used:
Staphylococcus aureus [1] = assay: Antibacterial activity against methicilin-resistant Staphylococcus aureus assessed as inhibition of bacterial growth incubated for 24 hrs by broth microdilution method; type: functional
Staphylococcus aureus [2] = assay: Antibacterial activity against vancomycin intermediate Staphylococcus aureus assessed as inhibition of bacterial growth incubated for 24 hrs by broth microdilution method; type: functional
Staphylococcus aureus [3] = assay: Drug resistance, ratio of MIC for Staphylococcus aureus ATCC 29213 incubated for 16 to 18 hrs and measured after 16 passages to MIC for Staphylococcus aureus ATCC 29213 incubated for 16 to 18 hrs; type: functional
Staphylococcus aureus [4] = assay: Drug resistance, ratio of MIC for Staphylococcus aureus ATCC 29213 incubated for 16 to 18 hrs and measured after 2 passages to MIC for Staphylococcus aureus ATCC 29213 incubated for 16 to 18 hrs; type: functional
Staphylococcus aureus [5] = assay: Antimicrobial activity against Staphylococcus aureus ATCC 29213 assessed as inhibition of bacterial growth incubated for 16 to 18 hrs by CLSI protocol based Muller Hinton broth assay; type: functional; conditions: time 16-18 hrs
Cell membrane [6] = assay: Induction of inner membrane permeabilization in Staphylococcus aureus assessed as fluorescence intensity at 16 microg/ml incubated for 15 mins by PI staining based microplate reader; type: cell membranes; conditions: dose 16.0 µg/ml
Escherichia coli [7] = assay: Induction of morphological changes in Escherichia coli assessed as shattering of rod shaped cells at 8 times of MIC incubated for 4 hrs by scanning electron microscopic analysis; type: functional, organism-based
Cell membrane [8] = assay: Induction of cell membrane damage in Staphylococcus aureus assessed as nucleic acid leakage at 4 times of MIC incubated for 2 hrs by n ultra-micro-volume spectrophotometric analysis; type: cell membranes
Staphylococcus aureus [9] = assay: Antibacterial activity against Staphylococcus aureus assessed as reduction in bacterial colony incubated upto 24 hrs by time-kill kinetics assay; type: functional
[10] = Hemolytic activity in defibrinated sheep RBC assessed as hemolysis rate at 1280 microg/ml incubated for 1 hrs relative to control; type: toxicity, cell-based, Ovis aries, Erythrocyte; conditions: defibrinated sheep red blood cells, at 1280 µg/mL, read-out: Activity
Staphylococcus aureus [11] = assay: Anti-biofilm activity against Staphylococcus aureus assessed as reduction in bacterial density at 16 times of MIC incubated for 24 hrs by confocal laser scanning microscopic analysis; type: functional, organism-based
Staphylococcus aureus [12] = assay: Antibacterial activity against Staphylococcus aureus assessed as inhibition of bacterial growth by measuring fold change in MIC incubated for 6 hrs in presence of defibrinated sheep 50% plasma by CLSI protocol based Muller Hinton broth assay; type: functional
Staphylococcus aureus [13] = assay: Induction of morphological changes in Staphylococcus aureus assessed as appearance of aggregated membrane sheets at 8 times of MIC incubated for 4 hrs by scanning electron microscopic analysis; type: functional, organism-based
Staphylococcus aureus [14] = assay: Antimicrobial activity against Staphylococcus aureus ATCC 29213 incubated for 16 to 18 hrs and measured before 9th passage by CLSI protocol based Muller Hinton broth assay; type: functional, organism-based
[15] = Hemolytic activity in defibrinated sheep RBC incubated for 1 hrs; type: toxicity, cell-based, Ovis aries, Erythrocyte; conditions: defibrinated sheep red blood cells
Staphylococcus aureus [16] = assay: Antibacterial activity against Staphylococcus aureus assessed as inhibition of bacterial growth incubated for 6 hrs in presence of defibrinated sheep 50% plasma by CLSI protocol based Muller Hinton broth assay; type: functional
Staphylococcus aureus [17] = assay: Anti-biofilm activity against Staphylococcus aureus assessed as reduction in bacteria in biofilm at 32 times of MIC incubated for 24 hrs by confocal laser scanning microscopic analysis; type: functional, organism-based
Escherichia coli [18] = assay: Antibacterial activity against Escherichia coli ATCC 25922 incubated for 16 to 18 hrs and measured before 7th passage by CLSI protocol based Muller Hinton broth assay; type: functional, organism-based
Staphylococcus aureus [19] = assay: Antibacterial activity against Staphylococcus aureus assessed as inhibition of bacterial growth by measuring fold change in MIC incubated for 6 hrs in presence of 50% fetal bovine serum by CLSI protocol based Muller Hinton broth assay; type: functional
[20] = test system: Stenotrophomonas maltophilia; assay: Antimicrobial activity against Stenotrophomonas maltophilia ATCC 17808 assessed as inhibition of bacterial growth incubated for 16 to 18 hrs by CLSI protocol based Muller Hinton broth assay; type: functional; conditions: time 16-18 hrs
Staphylococcus aureus [21] = assay: Antibacterial activity against Staphylococcus aureus assessed as inhibition of bacterial growth incubated for 6 hrs in presence of 50% fetal bovine plasma by CLSI protocol based Muller Hinton broth assay; type: functional
Escherichia coli [22] = assay: Antimicrobial activity against Escherichia coli ATCC 25922 assessed as inhibition of bacterial growth incubated for 16 to 18 hrs by CLSI protocol based Muller Hinton broth assay; type: functional; conditions: time 16-18 hrs
Staphylococcus aureus [23] = assay: Induction of morphological changes in Staphylococcus aureus assessed as disintegrated membrane blocks at 8 times of MIC incubated for 4 hrs by scanning electron microscopic analysis; type: functional, organism-based
Escherichia coli [24] = assay: Drug resistance, ratio of MIC for Escherichia coli ATCC 25922 incubated for 16 to 18 hrs and measured after 25 passage to MIC for Escherichia coli ATCC 25922 incubated for 16 to 18 hrs; type: functional
Staphylococcus aureus [25] = assay: Antibacterial activity against persistent Staphylococcus aureus assessed as reduction in bacterial colony at 16 times of MIC measured for 24 hrs by CLSI protocol based Muller Hinton broth assay; type: functional, organism-based
Cell membrane [26] = assay: Induction of cell membrane damage in Escherichia coli assessed as nucleic acid leakage at 4 times of MIC incubated for 2 hrs by n ultra-micro-volume spectrophotometric analysis; type: cell membranes
Staphylococcus aureus [27] = assay: Induction of morphological changes in Staphylococcus aureus assessed as irregular spherical appearance at 8 times of MIC incubated for 4 hrs by scanning electron microscopic analysis; type: functional, organism-based
Enterococcus faecalis = assay: Antimicrobial activity against Enterococcus faecalis ATCC 29212 assessed as inhibition of bacterial growth incubated for 16 to 18 hrs by CLSI protocol based Muller Hinton broth assay; type: functional; conditions: time 16-18 hrs
[28] = Cytotoxicity against human SW620 cells assessed as cell survival rate at 64 microg/ml incubated for 48 hrs by CCK8 assay relative to control; type: toxicity, cell-based, SW-620; conditions: at 64 µg/mL, read-out: Activity
Staphylococcus aureus [29] = assay: Anti-biofilm activity against Staphylococcus aureus assessed as punctate distribution of bacteria in biofilm at 32 times of MIC incubated for 24 hrs by confocal laser scanning microscopic analysis; type: functional, organism-based
Staphylococcus aureus [30] = assay: Anti-biofilm activity against Staphylococcus aureus assessed as reduction in extended colonies in biofilm at 16 times of MIC incubated for 24 hrs by confocal laser scanning microscopic analysis; type: functional, organism-based
Escherichia coli [31] = assay: Induction of morphological changes in Escherichia coli assessed as outer membrane damage at 8 times of MIC incubated for 4 hrs by scanning electron microscopic analysis; type: functional, organism-based
Staphylococcus aureus [32] = assay: Antibacterial activity against Staphylococcus aureus assessed as reduction in bacterial colony at 8 times of MIC incubated for 1 hrs by time-kill kinetics assay; type: functional, organism-based
Escherichia coli [33] = assay: Antibacterial activity against Escherichia coli assessed as reduction in bacterial colony at 2 times of MIC incubated for 2 to 24 hrs by time kill kinetics assay; type: functional, organism-based; conditions: time 2-24 hrs
Staphylococcus aureus [34] = assay: Antibacterial activity against Staphylococcus aureus assessed as inhibition of bacterial growth by measuring fold change in MIC incubated for 6 hrs in presence of 50% fetal bovine plasma by CLSI protocol based Muller Hinton broth assay; type: functional
Cell membrane [35] = assay: Induction of Cytoplasmic membrane depolarization in Staphylococcus aureus at 8 to 16 microg/ml incubated for 15 mins by fluorescence microplate reader; type: cell membranes; conditions: dose 8-16 µg/ml
[36] = Cytotoxicity against rat HBZY-1 cells assessed as cell survival rate at 64 microg/ml incubated for 48 hrs by CCK8 assay relative to control; type: toxicity, cell-based; conditions: at 64 µg/mL, read-out: Activity
Escherichia coli [37] = assay: Induction of morphological changes in Escherichia coli assessed as disintegration of rod shaped cells at 8 times of MIC incubated for 4 hrs by scanning electron microscopic analysis; type: functional, organism-based
Staphylococcus aureus [38] = assay: Antibacterial activity against methicillin resistant Staphylococcus aureus; type: functional

`CCCCCCCC[n+]1ccc(CN[C@@]2(C)C[C@H](O[C@H]3[C@H](Oc4c5cc6cc4Oc4ccc(cc4Cl)[C@@H](O)[C@@H](NC(=O)[C@@H](CC(C)C)NC)C(=O)N[C@@H](CC(N)=O)C(=O)N[C@H]6C(=O)N[C@H]4C(=O)N[C@H](C(=O)N[C@@H](C(=O)O)c6cc(O)cc(O)c6-c6cc4ccc6O)[C@H](O)c4ccc(c(Cl)c4)O5)O[C@H](CO)[C@@H](O)[C@@H]3O)O[C@@H](C)[C@H]2O)cc1` showed an MIC (Staphylococcus aureus [1]) of 0.1 µM and an MIC (Staphylococcus aureus [2]) of 0.11 µM.
Molecule `CCn1cc(C(=O)O)c(=O)c2cc(F)c(N3CCNCC3)cc21` [NORFLOXACIN] has a Ratio (Staphylococcus aureus [3]) of 64 and a Ratio (Staphylococcus aureus [4]) of 2.
With `CCCCCCCCNC(=O)C[n+]1ccc(C(=O)N2CCN(c3cc4c(cc3F)c(=O)c(C(=O)O)cn4C3CC3)CC2)cc1.[Br-]` the MIC (Staphylococcus aureus [5]) was 2 µg/mL, the Flu intensity (Cell membrane [6]) was 300 and the Activity (Escherichia coli [7]) was “Active”. For the same molecule, the Activity (Cell membrane [8]) was “Active”, the MIC (Staphylococcus aureus [9]) was 2 µg/mL and the hemolysis at 1 h, 1280 microg/ml [10] was 5.1%. The Activity (Staphylococcus aureus [11]) was “Active”, the “fold change (FC)” value (Staphylococcus aureus [12]) was 2 and the Activity (Staphylococcus aureus [13]) was “Active”. For the same molecule, the Ratio (Staphylococcus aureus [3]) was 4, the Activity (Staphylococcus aureus [14]) was “Active” and the HC50 at 1 h [15] was over 1280 µg/mL. The MIC (Staphylococcus aureus [16]) was 4 µg/mL, the Activity (Staphylococcus aureus [17]) was “Active” and the Activity (Escherichia coli [18]) was “Active”. For the same molecule, the “fold change (FC)” value (Staphylococcus aureus [19]) was 2, the MIC [20] was 8 µg/mL and the MIC (Staphylococcus aureus [21]) was 4 µg/mL. For the same molecule, the MIC (Escherichia coli [22]) was 2 µg/mL, the Activity (Staphylococcus aureus [23]) was “Active” and the Ratio (Escherichia coli [24]) was 2. The Activity (Staphylococcus aureus [25]) was “Active”, the Activity (Cell membrane [26]) was “Active” and the Activity (Staphylococcus aureus [27]) was “Active”. For the same molecule, the MIC (Enterococcus faecalis) was 2 µg/mL, the viability at 48 h, 64 microg/ml [28] was 68.2% and the Activity (Staphylococcus aureus [29]) was “Active”. The Activity (Staphylococcus aureus [30]) was “Active”, the Activity (Escherichia coli [31]) was “Active” and the Activity (Staphylococcus aureus [32]) was “Active”. For the same molecule, the Activity (Escherichia coli [33]) was “Active”, the “fold change (FC)” value (Staphylococcus aureus [34]) was 2 and the Activity (Cell membrane [35]) was “Active”. The viability at 48 h, 64 microg/ml [36] was 96.9% and the Activity (Escherichia coli [37]) was “Active”.
`COc1c2c(cc(F)c1N1CCN(CC(=O)Nc3ncc([N+](=O)[O-])s3)CC1)C(=O)C(C(=O)O)=CC2C1CC1` (stereo not given) gave an MIC (Staphylococcus aureus [38]) of 0.01 µg/mL (≈ 0.0183 µM).
